{"source": "patent US20250319067A1", "about": "“Improved Pharmacokinetics of Tryptamine Prodrugs” (Reunion Neuroscience, Inc., priority 2023, published 2025)", "key": {"[1]": {"test": "Metabolite profiling in monkey plasma after SC RE104", "format": "in vivo, cynomolgus monkey", "settings": "pooled plasma 0 to 12 hours post dose, SC 0.5 mg/kg RE104", "text": "Blood samples were centrifuged to obtain plasma."}, "[2]": {"biological_target": "human recombinant 5-HT2A receptors (Homo sapiens, UniProt P28223)", "sequence (P28223 whole entry)": "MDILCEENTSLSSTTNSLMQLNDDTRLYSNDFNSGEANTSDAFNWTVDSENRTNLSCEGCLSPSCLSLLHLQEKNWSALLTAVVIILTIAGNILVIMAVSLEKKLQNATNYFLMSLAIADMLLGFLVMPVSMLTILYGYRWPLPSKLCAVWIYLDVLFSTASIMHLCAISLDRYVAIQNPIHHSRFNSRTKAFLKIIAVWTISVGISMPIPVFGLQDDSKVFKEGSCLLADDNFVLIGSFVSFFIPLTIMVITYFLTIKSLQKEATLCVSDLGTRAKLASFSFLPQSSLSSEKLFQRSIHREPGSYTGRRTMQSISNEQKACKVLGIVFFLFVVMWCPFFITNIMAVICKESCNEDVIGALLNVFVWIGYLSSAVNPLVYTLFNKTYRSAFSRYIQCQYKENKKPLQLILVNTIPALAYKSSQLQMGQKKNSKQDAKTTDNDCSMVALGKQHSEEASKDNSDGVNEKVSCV", "test": "5-HT2A agonist radioligand binding assay ([125I]DOI)", "method": "(§2) Increasing concentrations of RE104 were incubated with 0.2 nM [^125I]DOI in CHO cell cultures expressing human recombinant 5-HT2B receptors.\n(§3) Radioligand concentration was measured by scintillation counting; compound binding was calculated as percent inhibition of the binding of [^125I]DOI. In agonist activity assays, test concentrations of RE104 were incubated with HEK-293 cells expressing human recombinant 5-HT2A receptors; IP1 production was detected using homogeneous time-resolved fluorescence. Activation was calculated as a percentage of the response to the positive control (10 μM 5-HT).\n(§4) Inhibition constants were calculated by using the Cheng-Prusoff equation Ki=IC50/(1+L/KD), where L=radioligand concentration and KD=radioligand affinity for the receptor (determined with a Scatchard plot). In the functional activity assay test concentrations of RE104 were 10 nM, 30 nM, 100 nM, 300 nM, 1 μM, 3 μM, 10 μM, and 30 μM. EC50 and IC50 values were determined by nonlinear regression analysis of the concentration-response curves generated with mean replicate values using Hill equation curve fitting."}, "[3]": {"test": "Phase 1 FIH study: plasma pharmacokinetics (LC-MS/MS)", "format": "in vivo", "settings": "female, plasma, human; for half-life: read-out: t1/2, mean (converted)", "procedure": "(§1) The study was a double-blind, randomized, placebo-controlled Phase 1 single ascending dose study in up to 6 cohorts in healthy females. Eligibility was assessed during a screening period of up to 28 days prior to enrollment. For the treatment period, subjects were admitted to the clinical research unit (CRU) one day prior to the dosing (Day −1). On Day 1, all subjects will received the assigned SC dose of RE104 HCl or placebo in a fed state (after domiciling overnight and consuming a planned evening meal on Day −1 and morning meal on Day 1 while at the CRU). Subjects were allowed to select snacks from a planned menu from 4 hours following dosing. Subjects were discharged from the clinic on Day 2 (−24 hours post-dose) after all required study procedures were completed and if deemed medically fit. Subjects returned to the clinic on Day 10 (±2 days) for a follow up visit.\nThe concentrations of RE104 and isoprocin in plasma were determined using a validated Liquid chromatography tandem mass spectrometry (LC-MS/MS) assay."}, "[4]": {"test": "GLP 14-day extended single SC dose toxicity study in rats", "settings": "Sprague Dawley, rat, plasma, sc, 10 mg/kg", "procedure": "In a GLP 14-day extended single SC dose toxicity study in rats, doses of 0 (PBS), 10, 25 and 75 mg/kg were evaluated. Animals were necropsied on Study Day 2 and Day 14 (also referred to as Recovery Day 13) post-dosing.\nA non-GLP dose range study was performed in the dog in order to determine an MTD. Single SC doses of 7.5, 15 and 20 mg/kg were evaluated."}, "[5]": {"biological_target": "human recombinant 5-HT2B receptors (Homo sapiens, UniProt P41595)", "sequence (P41595 whole entry)": "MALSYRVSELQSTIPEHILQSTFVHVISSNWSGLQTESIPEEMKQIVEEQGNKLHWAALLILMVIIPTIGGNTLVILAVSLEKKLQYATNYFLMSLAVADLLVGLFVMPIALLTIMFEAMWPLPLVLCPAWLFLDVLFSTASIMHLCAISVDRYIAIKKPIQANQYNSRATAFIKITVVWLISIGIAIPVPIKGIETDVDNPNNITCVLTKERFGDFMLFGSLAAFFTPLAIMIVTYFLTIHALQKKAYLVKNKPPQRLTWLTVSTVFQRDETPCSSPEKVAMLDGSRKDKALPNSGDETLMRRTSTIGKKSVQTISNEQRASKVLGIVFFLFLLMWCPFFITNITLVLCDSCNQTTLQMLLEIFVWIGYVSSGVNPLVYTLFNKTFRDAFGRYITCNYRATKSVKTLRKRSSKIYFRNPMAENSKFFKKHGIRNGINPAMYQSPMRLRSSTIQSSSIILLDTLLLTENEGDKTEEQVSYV", "test": "5-HT2B agonist radioligand binding assay ([125I]DOI)", "method": "as §2, §3, §4"}, "[6]": {"settings": "in PBS; cited from earlier work"}, "[7]": {"test_system": "primary human hepatocytes", "test": "Metabolite profiling in plated human hepatocytes", "settings": "1 μM, pooled plated human hepatocytes", "method": "The formation of metabolites was monitored at 0, 4, 8, and 24 hours, respectively. […] Samples for positive and negative controls were determined at 0, 8, and 24 hours, respectively. RE104 and its metabolites were identified and profiled using ultrahigh-performance liquid chromatography (Supplemental Methods).\nThe quenched samples were pipetting mixed, harvested, and stored at −70° C. or lower until liquid chromatography tandem mass spectrometry analysis. […] The plated human hepatocyte incubation samples were frozen at ≤−70° C. or lower immediately and thawed to room temperature before sample processing. A 500-μL aliquot of each sample was transferred to matrix tubes (1.4 mL), followed by the addition of 500-μL mixed solvent acetonitrile:methanol:for mic acid (50:50:0.1, v/v/v). The resulting mixtures were vortex mixed for 2 minutes and centrifuged at 3000 rpm for 10 minutes. The supernatants from the triplicate incubations were pooled to generate the pooled samples (1.5 mL/each) for the LC-MS analysis.\nFor all metabolite identification and profiling experiments, RE104 and its metabolites were identified and profiled by UHPLC in a Shimadzu Nexeran™ UHPLC system coupled with a high-resolution mass spectrometer SCIEX 6600 Triple TOF®. Mass spectrometry analysis was carried out by using an electrospray ionization source operating in positive ion mode with full-scan TOF MS and MS/MS modes. […]"}, "[8]": {"test": "Rat PK after single IV or SC RE104 HCl 2 mg/kg (Example 1)"}, "[9]": {"test": "Plasma protein binding, animal plasma", "format": "in vitro ADME", "settings": "animal plasma proteins"}, "[10]": {"test": "Plasma protein binding, human plasma", "format": "in vitro ADME", "settings": "human plasma proteins, 1 to 20 PM; read-out: plasma protein binding (bound)"}, "[11]": {"test": "GLP 14-day extended single SC dose toxicity study in dogs", "settings": "beagle, dog, plasma, sc, 8 mg/kg"}, "in vivo [12]": {"test": "in vivo", "settings": "male, beagle, dog, plasma, po, 5 mg/kg", "method": "Two consecutive doses were separated by z7 days. Plasma samples were analyzed using an LC-MS/MS method (lower limit of quantification of 1.00 ng/mL for both analytes).\nPharmacokinetic parameters were calculated using Phoenix WinNonlin, version 6.3 or 8.2 (Certara, Princeton, NJ, USA).\nFor dog PK assessments, approximately 0.5 mL of blood was collected via superficial vein before dose and at 5 (for IV and SC injections only), 15, and 30 minutes and 1, 2, 4, 8, 16, 24, 48, and 72 hours post dose into tubes containing K2EDTA with 10 mM Dichlorvos as the anticoagulant and stabilizer, respectively."}, "in vivo [13]": {"test": "in vivo", "settings": "for half-life: male, cynomolgus monkey, plasma; for mean terminal half-life: monkey", "procedure": "Two male cynomolgus monkeys were administered 3 treatments in a crossover study design (Calvert Laboratories, Inc, Scott Township, PA; QPS, LLC, Newark, DE, USA). In treatment 1, RE104 was administered as an IV bolus dose at 1 mg/kg. In treatment 2, RE104 was administered as an SC injection at 0.5 mg/kg, and in treatment 3, RE104 was administered PO at 5 mg/kg, with all dosing formulations prepared in phosphate buffered saline."}, "humans": {"test_system": "humans", "settings": "human, cited from earlier work"}, "healthy females": {"test_system": "healthy females", "test": "Phase 1 FIH study: modified Drug Effect Questionnaire (DEQ-High)", "format": "in vivo, human", "settings": "plasma concentration below 40 ng/mL", "procedure": "as §1\nThe Drug Effect Questionnaire (DEQ) Feel/High is widely used in studies of acute subjective response to a variety of substances, to assess two key aspects of subjective experience: (1) the strength of substance effects and (2) desirability of substance effects (Morean et al., 2013). The modified DEQ assesses the extent to which subjects (1) feel any substance effect(s) and (2) feel high. This version of the DEQ includes the following items: “Do you feel a drug effect right now?” (FEEL); “Are you high right now?” (HIGH). FIG. 2 sets out the modified DEQ that was used.\nThe modified DEQ was used as an 11-point numeric rating scale (0-10) administered by a qualified staff member. The subjects were asked to verbally respond to indicate how strongly they feel the drug effect and how high they feel on the scale of 0-10 after being administered the study drug (Kollltveit et al., 2020)."}, "[14]": {"test": "Metabolite profiling in rat plasma after SC RE104", "settings": "0- to 10-hour pooled plasma, SC 10, 25, or 75 mg/kg RE104", "method": "Metabolite profiling and identification was performed using rat, dog, and nonhuman primate plasma samples after a single SC injection of RE104 (QPS, LLC, Newark, DE, USA).\nBlood samples were centrifuged to obtain plasma. Plasma samples for rat and dog studies were pooled across time points to 1 sample per dose and sex separately; plasma samples from monkeys were pooled to generate 1 combined sample.\nMetabolite profiling and identificationFor experiments performed in rats, blood samples were collected before dose and at 15 minutes, 30 minutes, and 1, 2, 4, 6, and 10 hours after dose. Blood samples from dogs were collected before dose and at 5 minutes, 30 minutes, and 1, 2, 4, 8, 12, and 24 hours after dose. Monkey blood samples were collected before dose and at 5 minutes, 15 minutes, 30 minutes, and 1, 1.5, 2, 4, 8, and 12 hours after dose. […]\nThe percent of RE104 and its metabolites in relation to the total area of compound-related material was obtained by integration of the extracted ion chromatogram peaks on the full-scan mass-chromatograms. The percent of peak area for each component relative to the total peak area was determined by using the following formula: Component % peak area=(peak area of component ×100%/total integrated peak area of compound-related material)."}}, "data": [{"smiles": "CC(C)N(CCc1c[nH]c2cccc(O)c12)C(C)C", "note": "[4-OH-DiPT, 3-(2-diisopropylamino-ethyl)-1H-indol-4-ol]", "values": [{"measurement": "share of the total peak area", "setting": "[1]", "value": 4.42, "unit": "%"}, {"measurement": "IC50", "setting": "[2]; read-out: IC50 at 5-HT2A, agonist radioligand assay", "value": 150, "unit": "nM"}, {"measurement": "Ki", "setting": "[2]; read-out: binding Ki at the 5-HT2A receptor, radioligand inhibition binding, HEK-293 cells", "value": 120, "unit": "nM"}, {"measurement": "Cmax", "setting": "[3]; RE104 dose 5.5 mg SC (n = 6)", "value": 18, "unit": "ng/mL"}, {"measurement": "Tmax", "setting": "[3]; RE104 dose 5.5 mg SC (n = 6)", "value": 1.12, "unit": "h"}, {"measurement": "half-life", "setting": "[3]; RE104 dose 5.5 mg SC (n = 6)", "value": 3.42, "unit": "h"}, {"measurement": "Cmax", "setting": "[3]; RE104 dose 11 mg SC (n = 6)", "value": 60, "unit": "ng/mL"}, {"measurement": "Tmax", "setting": "[3]; RE104 dose 11 mg SC (n = 6)", "value": 1.21, "unit": "h"}, {"measurement": "half-life", "setting": "[3]; RE104 dose 11 mg SC (n = 6)", "value": 3.55, "unit": "h"}, {"measurement": "Cmax", "setting": "[3]; RE104 dose 22 mg SC (n = 6)", "value": 77, "unit": "ng/mL"}, {"measurement": "Tmax", "setting": "[3]; RE104 dose 22 mg SC (n = 6)", "value": 1.42, "unit": "h"}, {"measurement": "half-life", "setting": "[3]; RE104 dose 22 mg SC (n = 6)", "value": 3.27, "unit": "h"}, {"measurement": "Cmax", "setting": "[3]; RE104 dose 33 mg SC (n = 9)", "value": 137, "unit": "ng/mL"}, {"measurement": "Tmax", "setting": "[3]; RE104 dose 33 mg SC (n = 9)", "value": 1.07, "unit": "h"}, {"measurement": "half-life", "setting": "[3]; RE104 dose 33 mg SC (n = 9)", "value": 2.79, "unit": "h"}, {"measurement": "Cmax", "setting": "[3]; RE104 dose 38 mg SC (n = 6)", "value": 124, "unit": "ng/mL"}, {"measurement": "Tmax", "setting": "[3]; RE104 dose 38 mg SC (n = 6)", "value": 1.08, "unit": "h"}, {"measurement": "half-life", "setting": "[3]; RE104 dose 38 mg SC (n = 6)", "value": 2.79, "unit": "h"}, {"measurement": "Cmax", "setting": "[3]; RE104 dose 44 mg SC (n = 3)", "value": 275, "unit": "ng/mL"}, {"measurement": "Tmax", "setting": "[3]; RE104 dose 44 mg SC (n = 3)", "value": 1.25, "unit": "h"}, {"measurement": "half-life", "setting": "[3]; RE104 dose 44 mg SC (n = 3)", "value": 3.76, "unit": "h"}, {"measurement": "AUC(0-t)", "setting": "[4]", "value": 1230, "unit": "ng·h/mL"}, {"measurement": "Cmax", "setting": "[4]", "value": 542, "unit": "ng/mL"}, {"measurement": "IC50", "setting": "[5]", "value": 42, "unit": "nM"}, {"measurement": "solubility", "setting": "[6]", "value": "< 2000", "unit": "µg/mL"}, {"measurement": "metabolites formed", "setting": "[7]", "value": "primarily producing O-glucuronide and negligible amounts of other metabolites"}, {"measurement": "elimination half-life (t1/2) in plasma", "setting": "[8]; RE104 HCl 2 mg/kg SC", "value": 0.678, "unit": "h"}, {"measurement": "half-life", "setting": "[8]; plasma, iv, 2 mg/kg", "value": 0.426, "unit": "h"}, {"measurement": "fraction unbound", "setting": "[9]", "value": "0.4 to 0.7"}, {"measurement": "fraction unbound", "setting": "[10]", "value": "0.07 to 0.2"}, {"measurement": "AUC(0-t)", "setting": "[11]", "value": 1010, "unit": "ng·h/mL"}, {"measurement": "Cmax", "setting": "[11]", "value": 360, "unit": "ng/mL"}, {"measurement": "AUC(0-t)", "setting": "in vivo [12]", "value": 103, "unit": "ng·h/mL"}, {"measurement": "Cmax", "setting": "in vivo [12]", "value": 21.4, "unit": "ng/mL"}, {"measurement": "Tmax", "setting": "in vivo [12]", "value": 4, "unit": "h"}, {"measurement": "half-life", "setting": "in vivo [13]; iv, 1 mg/kg", "value": 0.631, "unit": "h"}, {"measurement": "half-life", "setting": "in vivo [13]; sc, 0.5 mg/kg", "value": 0.95, "unit": "h"}, {"measurement": "mean terminal half-life", "setting": "in vivo [13]; RE104 IV dosing", "value": 0.63, "unit": "h"}, {"measurement": "mean terminal half-life", "setting": "in vivo [13]; RE104 SC dosing", "value": 0.95, "unit": "h"}, {"measurement": "onset of effect (mild physical awareness)", "setting": "humans; 10 mg orally (Shulgin)", "value": "≤ 1", "unit": "h"}, {"measurement": "recovery", "setting": "humans; 20 mg oral dose (Shulgin)", "value": "≤ 3", "unit": "h"}, {"measurement": "onset of effect", "setting": "humans; 20 mg orally (Shulgin)", "value": "≤ 15", "unit": "min"}, {"measurement": "mean DEQ-High score", "setting": "healthy females", "value": "≤ 2"}, {"measurement": "share of total metabolites in plasma", "setting": "[14]", "value": "> 67", "unit": "%"}]}]}
